The text below walks through data of patent publication US20250002450A1, “CATIONIC STEROID COMPOUNDS, METHOD OF OBTAINING THEREOF, FORMULATIONS COMPRISING THEREOF AND THEIR USES” (UNIVERSIDADE DO PORTO, priority 2021, published 2025).

Values after ≈ are worked out from the molar mass of the structure shown.

Format in all cases: cell-based
Test [1] deals with Pseudomonas aeruginosa ATCC 27853. Nature of the test: Antibacterial MIC/MBC (broth microdilution). The following applies: ATCC27853, Pseudomonas aeruginosa ATCC 27853; for MBC: read-out: MBC; for MIC: read-out: MIC. The essentials:
(§1)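 Broth microdilution in MHB2, two-fold dilutions 0.062–64 μg/mL, inoculum about 5×10^5 CFU/mL, 20 h at 37°C. MIC is the lowest concentration preventing visible growth. MBC is the lowest concentration killing 99.9% of the inoculum after plating clear wells on MH agar; Listonella was subcultured on nutrient agar.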
In general terms: In broth dilution the organism is exposed to a series of concentrations in liquid medium.

Test [2] relates to Klebsiella pneumoniae ATCC 13883. Briefly: Antibacterial MIC/MBC (broth microdilution). The settings on record: ATCC13883, Klebsiella pneumoniae ATCC 13883; for MBC: read-out: MBC; for MIC: read-out: MIC. In a few lines: as §1
Test [3] deals with Escherichia coli ATCC 25922. Briefly: Antibacterial MIC/MBC (broth microdilution). The following applies: ATCC25922, Escherichia coli ATCC 25922; for MBC: read-out: MBC; for MIC: read-out: MIC. In a few lines:
as §1

Test [4] deals with Yersinia ruckeri ATCC 29473. Nature of the test: Antibacterial MIC/MBC (broth microdilution). The following applies: for MBC: ATCC29473, read-out: MBC; for MIC: ATCC29473, read-out: MIC. In a few lines: as §1
Test [5] concerns Salmonella enterica serovar Typhimurium CECT 443. Nature of the test: Antibacterial MIC/MBC (broth microdilution). The settings on record: for MBC: read-out: MBC; for MIC: read-out: MIC. The essentials: as §1
Test [6] concerns Tenacibaculum maritimum ATCC 43397. Nature of the test: Antibacterial disk diffusion. The settings on record: Tenacibaculum maritimum ATCC 43397, footnote *. From the text:
(§2) Twelve reference bacterial strains and nine MDR clinically relevant bacterial strains were used in this study. Gram-negative bacteria comprised reference strains E. coli ATCC 25922, K. pneumoniae ATCC 13883, Salmonella enterica serovar Typhimurium CECT 443, P. aeruginosa ATCC 27853, A. baumannii ATCC 19606, C. jejuni ATCC 33560 (ATCC—American Type Culture Collection; CECT—Colección Espanola de Cultivos Tipo); clinical isolates E. coli SA/2, an extended-spectrum β-lactamase (ESBL)-producing strain and P. aeruginosa 33b, a pan-drug-resistant isolate; and animal isolates C. jejuni P5/4, a ciprofloxacin-resistant strain, C. jejuni 4432, C. jejuni 4433, C. jejuni 4448, and E. coli 2252, a COL-resistant strain [42]. Gram-positive strains included S. aureus ATCC 29213, E. faecalis ATCC 29212, S. pyogenes ATCC 19615, and environmental isolates methicillin-resistant S. aureus (MRSA) 66/1 [43], and VAN-resistant enterococci (VRE) E. faecalis B3/101 [44]. Gram-negative fish pathogens Yersinia ruckeri ATCC 29473, Listonella anguillarum ATCC 1924, and Tenacibaculum maritimum ATCC 43397 were also included.
(§3) Strains were kept in Trypto-Casein Soy agar (TSA—Biokar Diagnostics, Allone, Beauvais, France) slants and, before each assay, were sub-cultured in Mueller-Hinton agar (MHA—Biokar Diagnostics, Allone, Beauvais, France). Y. ruckeri ATCC 29473 and L. anguillarum ATCC 1924 were kept in Nutrient Agar (Condalab, Madrid, Spain) and T. maritimum ATCC 43397 was kept in TMM agar (Condalab, Madrid, Spain), and were sub-cultured in the respective culture media before each assay. For S. pyogenes ATCC 19615, CAMHB was supplemented with 3.75% lysed horse blood (LBH—Oxoid, Basingstoke, England), whereas for C. jejuni it was supplemented with 2.5% LHB. Colony-forming unit counts of the inoculum were conducted to determine the initial inoculum size (which should be approximately 5×10^5 CFU/mL). Sterility and growth controls were included in each assay. The 96-well U-shaped untreated polystyrene microtiter plates were incubated for 20 h at 37 degrees C. (42 degrees C. for C. jejuni, in a microaerophilic atmosphere) and the minimal inhibitory concentration (MIC) was determined as the lowest concentration of compound that prevented visible growth. The minimal bactericidal concentration (MBC) was determined by spreading 100 μL of the content of the wells with no visible growth on MH plates. The MBC was determined as the lowest concentration of compound that killed 99.9% of the initial inoculum after overnight incubation at 37 degrees C. Two independent assays were performed for reference and MDR strains.
(§4) An initial screening of the antibacterial activity of the compounds was performed by the Kirby-Bauer disk diffusion method, as recommended by the Clinical and Laboratory Standards Institute (CLSI). Briefly, sterile 6 mm blank paper disks (Oxoid, Basingstoke, England) impregnated with 15 μg of each compound were placed on inoculated MH agar plates. A blank disk with dimethylsulfoxide (DMSO) was used as a negative control. MH inoculated plates were incubated for 18-20 h at 37 degrees C. At the end of incubation, the inhibition halos where measured. The MIC was used to determine the antibacterial activity of each compound, in accordance with the recommendations of the CLSI. Two-fold serial dilutions of the compounds were prepared in Mueller-Hinton Broth 2 (MHB2—Sigma-Aldrich, St. Louis, MO, USA) within the concentration range of 0.062-64 μg/mL. CTX ranging between 0.031-16 μg/mL was used as a control. Sterility and growth controls were included in each assay. Purity checks and colony counts of the inoculum suspensions were also performed in order to ensure that the final inoculum density closely approximates the intended number (5×10^5 CFU/mL). The MIC was determined as the lowest concentration of compound that inhibited growth of the bacteria. The MBC was assessed by spreading 10 μL of culture collected from wells showing no visible growth on MH agar plates. […]
For orientation: A growth-free zone around the sample is the usual read-out of agar diffusion tests.

Test [7] relates to Gram-negative and Gram-positive bacteria. Briefly: Antibacterial activity, whole strain panel.
From the text: as §2, §3, §4

In general, MBC refers to the lowest tested concentration that kills the bacteria rather than only halting them. A word on the MIC: it is the lowest concentration found to suppress growth. Regarding `C[C@H](CCC(=O)NCCNc1ccccc1)[C@H]1CC[C@H]2[C@@H]3CC[C@@H]4C[C@H](O)CC[C@]4(C)[C@H]3C[C@H](O)[C@]12C` [Compound 8, (R)-4-((3R,5R,8R,9S,10S,12S,13R,14S,17R)-3,12-dihydroxy-10,13-dimethylhexadecahydro-1H-cyclopenta[a]phenanthren-17-yl)-N-(2-(phenylamino)ethyl)pentanamide], the MBC in test [1], in test [2], in test [3], in test [4] and in test [5] was above 64 µg/mL in each case. Besides, the minimal inhibitory concentration (MIC) in test [1], in test [2], in test [3], in test [4] and in test [5] was above 64 µg/mL throughout. In addition, in test [6], the “Inhibition zone diameter (disk diffusion)” value (“Inhibition zone diameter” for short) came out at 12 mm.
Take `C[C@H](CCC(=O)N1CCN(C(=O)CC[C@H](C)[C@@H]2CC[C@@H]3[C@H]4CC[C@H]5C[C@@H](O)CC[C@@]5(C)[C@@H]4C[C@@H](O)[C@]32C)CC1)[C@H]1CC[C@H]2[C@@H]3CC[C@@H]4C[C@H](O)CC[C@]4(C)[C@H]3C[C@H](O)[C@]12C` [Compound 4, (R)-4-((3R,5R,8R,9S,10S,12S,13R,14S,17R)-3,12-dihydroxy-10,13-dimethylhexadecahydro-1H-cyclopenta[a]phenanthren-17-yl)-1-(4-((S)-4-((3S,5S,8S,9R,10R,12R,13S,14R,17S)-3,12-dihydroxy-10,13-dimethylhexadecahydro-1H-cyclopenta[a]phenanthren-17-yl)pentanoyl)piperazin-1-yl) pentan-1-one]: in test [7], the “activity against Gram-negative bacteria (in words)” value is given as “exhibited activities”. Also, the “spectrum of antibacterial activity (in words)” value in test [7] (all bacterial strains tested) was “active in eight of the tested strains”. Also, the MBC is above 64 µg/mL in test [1]; above 64 µg/mL in test [2]; above 64 µg/mL in test [3]; 64 µg/mL (≈ 76.6 µM) in test [4]; 64 µg/mL (≈ 76.6 µM) in test [5]. Further, the MIC in test [1] was above 64 µg/mL; in test [2], above 64 µg/mL; in test [3], above 64 µg/mL; in test [4], 64 µg/mL (≈ 76.6 µM); in test [5], 64 µg/mL (≈ 76.6 µM). For the same compound, the “antibacterial activity (in words)” value in test [4] was “displayed antibacterial activity”; in test [5], “exhibited antimicrobial activity”. Further, the “Inhibition zone diameter” value in test [6] is listed as 10 mm.
On to `CCN(CC)CCNC(=O)CC[C@@H](C)[C@H]1CC[C@H]2[C@@H]3CC[C@@H]4C[C@H](O)CC[C@]4(C)[C@H]3C[C@H](O)[C@]12C` [Compound 6, (R)—N-(2-(diethylamino)ethyl)-4-((3R,5R,8R,9S,10S,12S,13R,14S,17R)-3,12-dihydroxy-10,13-dimethylhexadecahydro-1H-cyclopenta[a]phenanthren-17-yl)pentanamide], for which the “activity against Gram-negative bacteria (in words)” value in test [7] is given as “exhibited activities”. The MBC in test [1], in test [2], in test [3], in test [4] and in test [5] was above 64 µg/mL each time. For the same compound, the minimum inhibitory concentration (MIC) in test [1] is above 64 µg/mL; in test [2] it was above 64 µg/mL; in test [3], 64 µg/mL (≈ 130 µM); in test [4], above 64 µg/mL; in test [5], above 64 µg/mL. The “Inhibition zone diameter” value in test [6] is 10 mm.
With `C[C@H](CCC(=O)N1CCOCC1)[C@H]1CC[C@H]2[C@@H]3CC[C@@H]4C[C@H](O)CC[C@]4(C)[C@H]3C[C@H](O)[C@]12C` [Compound 3, (R)-4-((3R,5R,8R,9S,10S,12S,13R,14S,17R)-3,12-dihydroxy-10,13-dimethylhexadecahydro-1H-cyclopenta[a]phenanthren-17-yl)-1-morpholinopentan-1-one], the MBC in test [1], in test [2], in test [3], in test [4] and in test [5] was above 64 µg/mL each time. Further, the MIC in test [1], in test [2], in test [3], in test [4] and in test [5] was above 64 µg/mL in each case. The “Inhibition zone diameter” value in test [6] turned out to be 10 mm.
Take `C[C@H](CCC(=O)N1CCCCC1)[C@H]1CC[C@H]2[C@@H]3CC[C@@H]4C[C@H](O)CC[C@]4(C)[C@H]3C[C@H](O)[C@]12C` [Compound 2, (R)-4-((3R,5R,8R,9S,10S,12S,13R,14S,17R)-3,12-dihydroxy-10,13-dimethylhexadecahydro-1H-cyclopenta[a]phenanthren-17-yl)-1-(piperidin-1-yl) pentan-1-one]: the minimum bactericidal concentration (MBC) in test [1], in test [2], in test [3], in test [4] and in test [5] was above 64 µg/mL in each case. Moreover, the MIC in test [1], in test [2], in test [3], in test [4] and in test [5] was above 64 µg/mL in each case. Further, the “Inhibition zone diameter” value in test [6] is listed as 18 mm.
Consider `C[C@H](CCC(=O)N1CCN(C(=O)OC(C)(C)C)CC1)[C@H]1CC[C@H]2[C@@H]3CC[C@@H]4C[C@H](O)CC[C@]4(C)[C@H]3C[C@H](O)[C@]12C` [Compound 5, tert-butyl 4-((R)-4-((3R,5R,8R,9S,10S,12S,13R,14S,17R)-3,12-dihydroxy-10,13-dimethylhexadecahydro-1H-cyclopenta[a]phenanthren-17-yl)pentanoyl)piperazine-1-carboxylate], for which the MBC in test [1], in test [2], in test [3], in test [4] and in test [5] was above 64 µg/mL in each case. The MIC in test [1], in test [2], in test [3], in test [4] and in test [5] was above 64 µg/mL in each case. Moreover, the “Inhibition zone diameter” value in test [6] is listed as 10 mm.
